# Assay results reported in ChEMBL document CHEMBL5316337, “Critical Role of Position 10 Residue in the Polymyxin Antimicrobial Activity” (J Med Chem, 2023).
# Assays:
# Format in all cases: functional
# Acinetobacter baumannii [1] = assay: Antibacterial activity against Carbapenem-resistant Acinetobacter baumannii FADD1-AB030 clinical isolates assessed as reduction in bacterial growth by broth microdilution method
# Pseudomonas aeruginosa [2] = assay: Antibacterial activity against Carbapenem-resistant Pseudomonas aeruginosa FADD1-PA022 clinical isolates assessed as reduction in bacterial growth by broth microdilution method
# Pseudomonas aeruginosa [3] = assay: Antibacterial activity against polymyxin-susceptible Pseudomonas aeruginosa FADD1-PA025 clinical isolates assessed as reduction in bacterial growth by broth microdilution method
# Pseudomonas aeruginosa [4] = assay: Antibacterial activity against Carbapenem-resistant Pseudomonas aeruginosa FADD1-PA001 clinical isolates assessed as reduction in bacterial growth by broth microdilution method
# Pseudomonas aeruginosa [5] = assay: Antibacterial activity against polymyxin-susceptible Pseudomonas aeruginosa ATCC 27853 clinical isolates assessed as reduction in bacterial growth by broth microdilution method
# Klebsiella pneumoniae [6] = assay: Antibacterial activity against Carbapenem-resistant Klebsiella pneumoniae FADD1-KP022 clinical isolates assessed as reduction in bacterial growth by broth microdilution method
# Enterobacter cloacae [7] = assay: Antibacterial activity against polymyxin-susceptible Enterobacter cloacae FADD1-EC003 clinical isolates assessed as reduction in bacterial growth by broth microdilution method
# Klebsiella pneumoniae [8] = assay: Antibacterial activity against Carbapenem-resistant Klebsiella pneumoniae BM1 clinical isolates assessed as reduction in bacterial growth by broth microdilution method
# Acinetobacter baumannii [9] = assay: Antibacterial activity against polymyxin-susceptible Acinetobacter baumannii ATCC 19606 clinical isolates assessed as reduction in bacterial growth by broth microdilution method
# Klebsiella pneumoniae [10] = assay: Antibacterial activity against Carbapenem-resistant Klebsiella pneumoniae FADD1-KP032 clinical isolates assessed as reduction in bacterial growth by broth microdilution method
# Klebsiella pneumoniae [11] = assay: Antibacterial activity against polymyxin-susceptible Klebsiella pneumoniae ATCC 700721 clinical isolates assessed as reduction in bacterial growth by broth microdilution method
# Enterobacter cloacae [12] = assay: Antibacterial activity against polymyxin-susceptible Enterobacter cloacae FADD1-EC001 clinical isolates assessed as reduction in bacterial growth by broth microdilution method
# Pseudomonas aeruginosa [13] = assay: Antibacterial activity against polymyxin-susceptible Pseudomonas aeruginosa FADD1-PA038 clinical isolates assessed as reduction in bacterial growth by broth microdilution method
# Acinetobacter baumannii [14] = assay: Antibacterial activity against polymyxin-susceptible Acinetobacter baumannii ATCC 17978 clinical isolates assessed as reduction in bacterial growth by broth microdilution method
# Klebsiella pneumoniae [15] = assay: Antibacterial activity against Carbapenem-resistant Klebsiella pneumoniae FADD1-KP065 clinical isolates assessed as reduction in bacterial growth by broth microdilution method
# Acinetobacter baumannii [16] = assay: Antibacterial activity against Carbapenem-resistant Acinetobacter baumannii FADD1-AB034 clinical isolates assessed as reduction in bacterial growth by broth microdilution method
# Enterobacter cloacae [17] = assay: Antibacterial activity against polymyxin-susceptible Enterobacter cloacae FADD1-EC006 clinical isolates assessed as reduction in bacterial growth by broth microdilution method
SMILES,MIC (Acinetobacter baumannii [1]) [µg/mL],MIC (Pseudomonas aeruginosa [2]) [µg/mL],MIC (Pseudomonas aeruginosa [3]) [µg/mL],MIC (Pseudomonas aeruginosa [4]) [µg/mL],MIC (Pseudomonas aeruginosa [5]) [µg/mL],MIC (Klebsiella pneumoniae [6]) [µg/mL],MIC (Enterobacter cloacae [7]) [µg/mL],MIC (Klebsiella pneumoniae [8]) [µg/mL],MIC (Acinetobacter baumannii [9]) [µg/mL],MIC (Klebsiella pneumoniae [10]) [µg/mL],MIC (Klebsiella pneumoniae [11]) [µg/mL],MIC (Enterobacter cloacae [12]) [µg/mL],MIC (Pseudomonas aeruginosa [13]) [µg/mL],MIC (Acinetobacter baumannii [14]) [µg/mL],MIC (Klebsiella pneumoniae [15]) [µg/mL],MIC (Acinetobacter baumannii [16]) [µg/mL],MIC (Enterobacter cloacae [17]) [µg/mL]
CC[C@H](C)CCCCC(=O)N[C@@H](CCN)C(=O)N[C@H](C(=O)N[C@@H](CCN)C(=O)N[C@H]1CCNC(=O)[C@H](CC(N)=O)NC(=O)[C@H](CCN)NC(=O)[C@H](CCN)NC(=O)[C@H](CC(C)C)NC(=O)[C@@H](Cc2ccccc2)NC(=O)[C@H](CCN)NC1=O)[C@@H](C)O,> 32,1,4,> 32,32,8,32,> 32,> 32,> 32,> 32,> 32,> 32,16,8,> 32,> 32
CC[C@H](C)CCCCC(=O)N[C@@H](CCN)C(=O)N[C@H](C(=O)N[C@@H](CCN)C(=O)N[C@H]1CCNC(=O)[C@H](C(C)N=[N+]=[N-])NC(=O)[C@H](CCN)NC(=O)[C@H](CCN)NC(=O)[C@H](CC(C)C)NC(=O)[C@@H](Cc2ccccc2)NC(=O)[C@H](CCN)NC1=O)[C@@H](C)O (some centres undefined),0.5,1,1,1,1,1,4,2,2,2,4,8,4,2,1,2,32
CC[C@H](C)CCCCC(=O)N[C@@H](CCN)C(=O)N[C@H](C(=O)N[C@@H](CCN)C(=O)N[C@H]1CCNC(=O)[C@H](C(C)C)NC(=O)[C@H](CCN)NC(=O)[C@H](CCN)NC(=O)[C@H](CC(C)C)NC(=O)[C@@H](Cc2ccccc2)NC(=O)[C@H](CCN)NC1=O)[C@@H](C)O,2,1,1,1,1,0.25,2,1,4,1,8,4,2,4,1,4,16
CC[C@H](C)CCCCC(=O)N[C@@H](CCN)C(=O)N[C@H](C(=O)N[C@@H](CCN)C(=O)N[C@H]1CCNC(=O)[C@H](COC)NC(=O)[C@H](CCN)NC(=O)[C@H](CCN)NC(=O)[C@H](CC(C)C)NC(=O)[C@@H](Cc2ccccc2)NC(=O)[C@H](CCN)NC1=O)[C@@H](C)O,1,1,2,2,0.5,0.25,8,1,8,2,4,8,8,2,1,4,32
CC[C@H](C)CCCCC(=O)N[C@@H](CCN)C(=O)N[C@H](C(=O)N[C@@H](CCN)C(=O)N[C@H]1CCNC(=O)[C@H](C(C)(C)C)NC(=O)[C@H](CCN)NC(=O)[C@H](CCN)NC(=O)[C@H](CC(C)C)NC(=O)[C@@H](Cc2ccccc2)NC(=O)[C@H](CCN)NC1=O)[C@@H](C)O,4,2,2,2,2,1,4,8,8,2,8,8,4,4,4,4,8
CC[C@H](C)CCCCC(=O)N[C@@H](CCN)C(=O)N[C@H](C(=O)N[C@@H](CCN)C(=O)N[C@H]1CCNC(=O)[C@@H]([C@H](C)O)NC(=O)[C@H](CCN)NC(=O)[C@H](CCN)NC(=O)[C@H](CC(C)C)NC(=O)[C@@H](Cc2ccccc2)NC(=O)[C@H](CCN)NC1=O)[C@@H](C)O,> 32,2,16,> 32,32,> 32,> 32,> 32,> 32,> 32,> 32,> 32,> 32,4,> 32,> 32,> 32
CC[C@H](C)CCCCC(=O)N[C@@H](CCN)C(=O)N[C@H](C(=O)N[C@@H](CCN)C(=O)N[C@H]1CCNC(=O)[C@H](CS)NC(=O)[C@H](CCN)NC(=O)[C@H](CCN)NC(=O)[C@H](CC(C)C)NC(=O)[C@@H](Cc2ccccc2)NC(=O)[C@H](CCN)NC1=O)[C@@H](C)O,32,4,8,8,4,4,16,16,16,16,16,16,8,16,4,16,16
CC[C@H](C)CCCCC(=O)N[C@@H](CCN)C(=O)N[C@H](C(=O)N[C@@H](CCN)C(=O)N[C@H]1CCNC(=O)[C@H]([C@@H](C)OC)NC(=O)[C@H](CCN)NC(=O)[C@H](CCN)NC(=O)[C@H](CC(C)C)NC(=O)[C@@H](Cc2ccccc2)NC(=O)[C@H](CCN)NC1=O)[C@@H](C)O,8,1,2,8,1,1,4,8,16,2,8,8,16,8,8,4,32
CC[C@H](C)CCCCC(=O)N[C@@H](CCN)C(=O)N[C@H](C(=O)N[C@@H](CCN)C(=O)N[C@H]1CCNC(=O)[C@H](CCO)NC(=O)[C@H](CCN)NC(=O)[C@H](CCN)NC(=O)[C@H](CC(C)C)NC(=O)[C@@H](Cc2ccccc2)NC(=O)[C@H](CCN)NC1=O)[C@@H](C)O,32,0.5,2,32,4,0.5,2,4,> 32,2,2,8,8,2,2,4,> 32
C/C=C1/NC(=O)[C@H](CCN)NC(=O)[C@H](CCN)NC(=O)[C@H](CC(C)C)NC(=O)[C@@H](Cc2ccccc2)NC(=O)[C@H](CCN)NC(=O)[C@@H](NC(=O)[C@H](CCN)NC(=O)[C@@H](NC(=O)[C@H](CCN)NC(=O)CCCC[C@@H](C)CC)[C@@H](C)O)CCNC1=O,2,1,2,4,2,2,> 32,8,4,8,16,> 32,16,1,4,2,> 32
CC[C@H](C)CCCCC(=O)N[C@@H](CCN)C(=O)N[C@H](C(=O)N[C@@H](CCN)C(=O)N[C@H]1CCNC(=O)[C@H](C(C)(C)O)NC(=O)[C@H](CCN)NC(=O)[C@H](CCN)NC(=O)[C@H](CC(C)C)NC(=O)[C@@H](Cc2ccccc2)NC(=O)[C@H](CCN)NC1=O)[C@@H](C)O,8,1,2,2,1,1,4,1,8,2,4,16,8,8,1,8,16
CC[C@H](C)CCCCC(=O)N[C@@H](CCN)C(=O)N[C@H](C(=O)N[C@@H](CCN)C(=O)N[C@H]1CCNC(=O)CNC(=O)[C@H](CCN)NC(=O)[C@H](CCN)NC(=O)[C@H](CC(C)C)NC(=O)[C@@H](Cc2ccccc2)NC(=O)[C@H](CCN)NC1=O)[C@@H](C)O,> 32,0.5,2,1,0.5,1,4,> 32,> 32,4,8,4,8,4,0.5,32,4
